The text below walks through data of article PMC13199644, “Optimized Quantitative Bacterial Two-Hybrid (qB2H) for Protein–Protein Interaction Assessment” (Computational and Structural Biotechnology Journal, 2026).

No end group written: not given here.

Assay [1] relates to ASF1BN. Description: qB2H v4 binder selection, long-term turbidostat (Chi.Bio), kanamycin 209 μg/ml, NGS enrichment/frequency. Particulars: kanamycin 209 μg/ml (120% MIC50), TF/T0 frequency ratio. Format: cell-based. Here is the method: (§1) Design and selection of binders
(§2) An AI pipeline integrating RFdiffusion, ProteinMPNN, and AlphaFold2 (detailed in Supplementary Methods) was implemented to design N-terminal extensions of ip4_mutG, a weak ASF1 binder (Kd ~10 μM). Briefly, N-terminal extensions of 11 to 16 amino acids were fused to linkers (GSEAK, GSEK, or GSK) and appended to the ip4_mutG coding sequence. Rational designs and controls (flexible N-terminal extensions) were incorporated into the library, ordered as oligonucleotide pools (oPools, IDT), and cloned into the v4 series plasmid for transformation into SB39 cells. Library selection was performed in 2 experimental setups: (a) short batch selection and (b) prolonged continuous selection in a turbidostat (Chi.Bio [61]).
(§3) In the batch selection, induced cultures diluted to OD600 = 0.05 were exposed to kanamycin concentrations ranging from 0 to 348 μg/ml. […] Cultures were maintained at OD600 0.4 for 21 or 29 h, followed by an additional 3-h growth period after sample collection, totaling 24 and 32 h.
(§4) Plasmids extracted from samples taken before (T0) and after selection (TF) were sequenced by NGS (Illumina), and reads corresponding to expected sequences were quantified to assess relative frequencies and enrichment.
Long selection runs (continuous cultures under stable cell density—turbidostat)
Culture conditions before kanamycin-based selection were identical to those in “short selection runs in batches” including T0 sample preparation. However, the turbidostat function of Chi.Bio system^11,12 was used to implement a continuous culture over extended selection periods. […] Samples (10 mL) were recovered at 21 and 29 h after selection initiation and cultured for an additional 3 hours (final OD ~ 2.5) totalizing, respectively, 24 (TF_24h) or 32 hours (TF_32h) selection.
(§5) NGS sample preparation and analysis
(§6) NGS samples were prepared by PCR using primer OR2895 with one of primers from OR2890– OR2894: 98 °C for 1 min; 26 cycles of (98 °C for 15 s.; 65 °C for 15 s.; 72 °C for 1 min) and 72 °C for 3 min.
(§7) FASTQ-formatted assembled paired-end reads corresponding to the expected sequences were counted and their frequencies calculated. Enrichment of each variant was obtained by the TF/T0 frequency ratio.

Another assay addresses T1, SMT3 (Saccharomyces cerevisiae, UniProt Q12306).
T1 construct: SMT3; UNIPROT: Q12306; 2-97; Saccharomyces cerevisiae; expressed in transfected cells; host or cells: E. coli BL21(DE3) transformed with VN594 plus a pBRα rpoA-fusion plasmid
Description: qB2H v1 fluorescence, SMT3 (SUMO) vs SUMO-interacting motifs. The settings on record: BL21(DE3), qB2H v1, cI-SMT3 2-97, IPTG(20µM). It is filed as cell-based, Escherichia coli. The procedure: Precultures of untransformed (for intrinsic fluorescence evaluation) and transformed SB39 cells were diluted (3 μl into 300 μl of fresh medium) in 2-ml microtubes and grown in ThermoMixer C (Eppendorf; 37 °C at 900 rpm) for 2 h. Cultures with an OD600 of approximately 0.5 were then mixed with 100 μl of the same medium containing 4× inducer concentration. […] The induced cultures were grown overnight at 18 °C, diluted (1 μl) in freshly filtered (0.22 μm) phosphate-buffered saline buffer (1 ml per OD unit), and analyzed using guava easyCyte HT (488-nm blue laser). The gating for event analysis was set to minimize background noise (fewer than 100 gated events per 10 μl of sterile phosphate-buffered saline). Ten thousand events were collected per culture, and the MFI was recorded. […] Their MFI were used to normalize those of other conditions (x) using the following equation [Eq. (1)]: Normalized MFIx=MFIx−MFIlow/MFIhigh−MFIlow × 100 (1)
MFI(x) represents the MFI of a given condition or culture. […] Each experiment was conducted in 3 independent assays performed on different days. Figures were generated using Python notebooks in conjunction with Matplotlib.
Interactions involving distinct protein domains and folding variants were assessed using qB2H systems v1, v2, and v3. […] The x-axis labels indicate the qB2H version and the interacting partners, formatted as follows: (qB2H version) Partner_A–Partner_B (inducers). Anhydrotetracycline (aTc) concentrations are reported in ng/mL; IPTG concentrations are given in µM. All experimental conditions, acronyms, and constructs are defined in the Methods section.

Assay [2] concerns ASF1BN. Description: qB2H v4 binder selection, short-term batch, kanamycin, NGS enrichment/frequency. The settings on record: 4 to 5 h, SB39 v4, TF/T0 frequency ratio. It is filed as cell-based, bacterial. Here is the method:
as §1, §2, §3, §4
Short selection runs (batches)
Glycerol stocks of mixed libraries were inoculated at approximately 18:00 in fresh media and grown overnight at 30 °C, to slow growth kinetics and reduce saturation-related stress (by decreasing the time spent in stationary phase). The grown cultures were diluted to OD600 = 0.05 in 150 mL of LB supplemented with 17 µg/mL chloramphenicol, 200 µM IPTG, 200 ng/mL aTc, and incubated (200 rpm, 37 °C) for 2 h (OD600 ~ 0.5). […] Assuming that sufficiently strong selection pressure can impact population growth over a short term (few hours), only cultures with OD at least 0.5 absorbance units lower than the OD of the culture without kanamycin after 4.5–5 h were retained for NGS analysis (TF-[ X µg/mL kan] samples).
as §5, §6, §7

A further assay concerns TNFa. Put plainly: qB2H v3 fluorescence, TNFa vs VHH/ScFv. The settings on record: SB39, v3, cI-TNFa 77-233, aTc(200ng/mL) + IPTG(1000µM). It is filed as cell-based, Homo sapiens. The procedure:
(§8) Precultures of untransformed (for intrinsic fluorescence evaluation) and transformed SB39 cells were diluted (3 μl into 300 μl of fresh medium) in 2-ml microtubes and grown in ThermoMixer C (Eppendorf; 37 °C at 900 rpm) for 2 h. Cultures with an OD600 of approximately 0.5 were then mixed with 100 μl of the same medium containing 4× inducer concentration. Final inducer concentrations, chosen on the basis of maximal signal output, were 20 μM IPTG for v1 or v2 and 200 μM IPTG plus […] for v3 series. The induced cultures were grown overnight at 18 °C, diluted (1 μl) in freshly filtered (0.22 μm) phosphate-buffered saline buffer (1 ml per OD unit), and analyzed using guava easyCyte HT (488-nm blue laser). The gating for event analysis was set to minimize background noise (fewer than 100 gated events per 10 μl of sterile phosphate-buffered saline). Ten thousand events were collected per culture, and the MFI was recorded. […]
(§9) MFI(x) represents the MFI of a given condition or culture. MFI(low) corresponds to the fluorescence produced by SB39 cells cotransformed with VN519 and VN550, indicating no detectable interaction (Kd > 100,000 nM). […]
Interactions involving distinct protein domains and folding variants were assessed using qB2H systems v1, v2, and v3. […]

The subject of assay [3] is ASF1BN. Put plainly: qB2H fluorescent reporter (eGFP MFI, flow cytometry or colonies), ASF1BN, v1 to v3. Format: cell-based, human. Particulars: relative to ip3_mut3A and ip1. Here is the method:
qB2H experiments using a fluorescent reporter
as §8, §9

Where [4] appears, read: ChiBio_T24_Kan209, turbidostat 24 h.
Where [5] appears, read: ChiBio_T32_Kan209, turbidostat 32 h.
Setting [6] is: Batch_Kan261, kanamycin 261 μg/ml (150% MIC50 of ASF1–ip3).
Where [7] appears, read: Batch_Kan348, kanamycin 348 μg/ml (200% MIC50 of ASF1–ip3).

T1 sequence (Q12306 2-97): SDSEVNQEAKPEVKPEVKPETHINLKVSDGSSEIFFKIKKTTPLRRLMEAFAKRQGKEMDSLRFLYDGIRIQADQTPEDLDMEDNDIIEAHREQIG

Consider “KPEAAASAEEEEAAFAALLAALPGSKWARLARRTAGAGGVTLNGAG [AI design n°233 with GSK linker]”, for which the enrichment with ASF1BN [1] (setting [4]) worked out at 1.42E+00; with ASF1BN [1] (setting [5]), 2.04E+00. Consider “Srs2_SIM: SUMO-interacting motif, P12954 1164-1174, Saccharomyces cerevisiae (KLNNGEIIVID; UniProt P12954 1164-1174, looked up, fragment)”, for which the “Norm. MFI” value with SMT3 is listed as 62.95%. Turning to “KPEAAASDAAARFAAALAALPGSKWARLARRTAGAGGVTLNGAG [AI design n°37 with GSK linker]”, in the assay on ASF1BN [2] (setting [6]), the enrichment is listed as 4.90E+00.

Consider “KPEAAASAEAEAARFAALLAALPGSKWARLARRTAGAGGVTLNGAG [AI design n°220 with GSK linker]”, for which the values for the enrichment with ASF1BN [1] (setting [4]) and in the assay with ASF1BN [1] (setting [5]) were 4.84E-02 and 5.25E-02, respectively. As to “KPEAAASAAAEQAHFAALLAKLPGSKWARLARRTAGAGGVTLNGAG [AI design n°225 with GSK linker]”, the enrichment in the assay with ASF1BN [2] (setting [7]) came out at 4.18E+00. On to “CDC48 431-450: CDC48 P25694 region 431-450, SUMO-interacting motif peptide (QQIREKMDLIDLDEDEIDAE; UniProt P25694 431-450, looked up, fragment)”, for which the “Norm. MFI” value with SMT3 came to 9.91%. As for “KPEAAASAAAEQAAFAALLAALPGSKWARLARRTAGAGGVTLNGAG [AI design n°217 with GSK linker]”, the enrichment in the assay with ASF1BN [2] (setting [6]) worked out at 3.15E+00.

Take “KPEAAASMSSHQLWKQWGGGSEKWARLARRTAGAGGVTLNGAG [Rational design n°84 with GSEK linker]”: the enrichment with ASF1BN [2] (setting [6]) is 2.46E+00. As to “KPEAAASAEAERWAQALAALPGSKWARLARRTAGAGGVTLNGAG [AI design n°32 with GSK linker]”, the enrichment in the assay with ASF1BN [2] (setting [6]) is 4.25E+00.

“KPEAAASAEEEQARFAALLAALPGSKWARLARRTAGAGGVTLNGAG [AI design n°250 with GSK linker]”: the enrichment in the assay with ASF1BN [2] (setting [7]) is given as 4.27E+00.

“ScFv (D2E7): Adalimumab ScFV; WIPO: WO2011084714A2”: the “Norm. MFI” value in the assay with TNFa is 8.76%. As to “KPEAAASAAEEQAAFDALLAALPGSKWARLARRTAGAGGVTLNGAG [AI design n°261 with GSK linker; third of turbidostat T32_Kan[209]]”, the enrichment with ASF1BN [1] (setting [4]) worked out at 6.25E+00; in the assay with ASF1BN [1] (setting [5]), 1.11E+01. Turning to WARLARRTAGAGGVTLNGAG [ip4_mutG], the qB2H signal entry in the assay on ASF1BN [3] was “between ip3_mut3A and ip1”.

In the case of “AAEEAARFAALLAALP-GSK-ip4_mutG [T32_Kan[209]_top2, AI design n°218 with GSK linker]”, the enrichment turned out to be 7.72E+01 in the assay on ASF1BN [1] (setting [4]) and 8.39E+01 in the assay on ASF1BN [1] (setting [5]). As for “CDC48 72-91: CDC48 P25694 region 72-91, SUMO-interacting motif peptide (KKRKDTVLIVLIDDELEDGA; UniProt P25694 72-91, looked up, fragment)”, the “Norm. MFI” value in the assay with SMT3 turned out to be 46.16%.

Turning to “KPEAAASSAAERFAAALAALPGSKWARLARRTAGAGGVTLNGAG [AI design n°47 with GSK linker; third of batch Kan[348]]”, the enrichment with ASF1BN [2] (setting [7]) worked out at 4.66E+00.
